Results on 9 molecules are retold here after ChEMBL document CHEMBL1201862, “PubChem BioAssay data set” (2004).

Where “and” joins values, the source holds several entries; their conditions need not be identical. Equal entries are not always repeated.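 Five concentrations, 48 hours, 96-well plates. GI50 is the concentration that inhibits growth by half.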 Calls of active or inactive are those of the source. Rule as the data show it: active = GI50 up to about 1.1 µM and inactive = higher. Bounds are passed on as bounds.

Assay in all cases: NCI-60 cell line screen, 48 h
Test [1] relates to HL-60.
In test [2] the test system is HOP-92.
Test [3] deals with RPMI-8226.
Test [4] relates to SW-620.
For test [5], the system named is OVCAR-8.
Test [6] concerns OVCAR-4.
Test [7] relates to LOX IMVI.
In test [8] the test system is M14.
For test [9], the system named is UACC-257.
In test [10] the test system is NCI-H23.
Test [11] deals with ACHN.
The subject of test [12] is UACC-62.
The test system of test [13] is MOLT-4.
Test [14] concerns SK-MEL-2.
In test [15] the test system is COLO 205.
For test [16], the system named is NCI-H522.
Test [17] relates to RXF 393.

`CN(C)CCNc1ccc2ncn3c4ccccc4c(=O)c1c23`: the GI50 was 7.73 µM (inactive) in test [1]; 2.3 µM (inactive) in test [2]; 2.84 µM (inactive) in [3]; 0.826 µM (active) in test [4]; 1.15 µM (inactive) in test [5]; 1.99 µM (inactive) in test [6]. Also, the GI50 in test [7] was 1.15 µM (inactive); in test [8], 3.11 µM (inactive); in test [9] it was 2.97 µM (inactive); in test [10] it was 3.32 µM (inactive); in [11], 1.26 µM (inactive); in test [12], 3.22 µM (inactive). Also, the GI50 in [13] was 0.615 µM (active); in test [14], 2.99 µM (inactive); in test [15] it was 0.94 µM (active); in test [16] it was 1.29 µM (inactive).
Turning to `NCCCNCCSSC/C=C\CSSCCNCCCN`, the GI50 is 16.6 µM (inactive) and 19.2 µM (inactive) in test [1]; 18.9 µM (inactive) and 23 µM (inactive) in test [2]; 26.9 µM (inactive) and 28.6 µM (inactive) in test [3]; 44.4 µM (inactive) and 31.1 µM (inactive) in test [4]; > 100 µM (inactive) in test [5]; 51.8 µM (inactive) and 58.2 µM (inactive) in test [6]. For the same molecule, the GI50 in test [7] is 45.2 µM (inactive) and 43.3 µM (inactive); in [8], 34 µM (inactive) and 49 µM (inactive); in [9], 30.9 µM (inactive) and 17.1 µM (inactive); in [10], > 100 µM (inactive); in test [11] it was > 100 µM (inactive); in test [12], 36.3 µM (inactive) and 52.8 µM (inactive). Moreover, the GI50 in test [13] was 20.4 µM (inactive) and 12.3 µM (inactive); in test [14] it was 50.1 µM (inactive); in [15] it was 29.5 µM (inactive) and 45.6 µM (inactive); in test [16] it was 10.3 µM (inactive) and 13.2 µM (inactive).
With `CC1(C)CC(=O)C(=[N+]=[N-])C(=O)C1`, the GI50 in test [1], in test [2], in [3], in test [4], in [6] and in test [7] was > 100 µM (inactive) throughout. In addition, the GI50 in [8], in test [9], in test [10], in [11], in test [17] and in test [12] was > 100 µM (inactive) each time. Moreover, the GI50 in test [14], in [15] and in test [16] was > 100 µM (inactive) in each case.
On to `O=C1CC(c2ccc(Cl)cc2)=Nc2ccccc2N1`, for which the GI50 was 19.3 µM (inactive) in test [1]; 26.4 µM (inactive) in [2]; 18.8 µM (inactive) in test [4]; 25.9 µM (inactive) in [5]; 28.6 µM (inactive) in [6]; 24.2 µM (inactive) in test [7]. The GI50 in [8] is > 100 µM (inactive); in test [9], 80.7 µM (inactive); in [10], 65.8 µM (inactive); in test [11], 69.5 µM (inactive); in [17], 29.9 µM (inactive); in [12], > 100 µM (inactive). Moreover, the GI50 is > 100 µM (inactive) in [13], > 100 µM (inactive) in test [14], > 100 µM (inactive) in test [15] and 40.9 µM (inactive) in test [16].
Take `NC(=O)c1ccc(Cl)c([N+](=O)[O-])c1`: the GI50 was > 100 µM (inactive) in test [1]; > 100 µM (inactive) in [2]; > 10 µM (inactive) in [3]; > 100 µM (inactive) in [4]; > 100 µM (inactive) in test [5]; > 100 µM (inactive) in test [6]. For the same molecule, the GI50 in test [7], in test [8], in [9], in [10], in test [11] and in [17] was > 100 µM (inactive) throughout. For the same molecule, the GI50 in [12] is > 100 µM (inactive); in [13] it was > 100 µM (inactive); in test [15], > 100 µM (inactive); in test [16] it was 48.9 µM (inactive).
`O=C(CCC(=O)C1Cc2ccccc2C1=O)Nc1cccc(C(F)(F)F)c1` (configuration not stated): the GI50 in test [1], in test [2], in [4], in test [5], in test [6] and in test [7] was > 100 µM (inactive) in each case. The GI50 in test [8], in [9], in test [10], in [11], in test [17] and in test [12] was > 100 µM (inactive) each time. The GI50 in [13], in test [14] and in [15] was > 100 µM (inactive) in each case.
Regarding `COC(=O)C(Cc1nc2ccccc2nc1O)C(NO)C(=O)Nc1c(Cl)cc([N+](=O)[O-])cc1Cl` (configuration not stated), the GI50 in [2] was 5.56 µM (inactive); in test [3] it was 34.7 µM (inactive); in test [5], 30.4 µM (inactive); in test [6], 38.5 µM (inactive); in test [8], 50.1 µM (inactive); in [9], 27.7 µM (inactive). The GI50 in test [10] is 22.4 µM (inactive); in test [11], 35.6 µM (inactive); in [17], 16.5 µM (inactive); in test [12] it was 18 µM (inactive); in test [13], 27.9 µM (inactive); in [14], 32.1 µM (inactive). Further, the figures for the GI50 in test [15] and in [16] were 46.2 µM (inactive) and 15.5 µM (inactive), respectively.
For the molecule `CCOC(=O)C1N(S(=O)(=O)c2ccc(C)cc2)CCC12c1ccccc1N(C(C)=O)C2C(/C=C/C(=O)OC)=C/C(=O)OC` (configuration not stated), the GI50 is 66.8 µM (inactive) in [1]; 44.1 µM (inactive) in test [2]; 62.5 µM (inactive) in test [3]; > 100 µM (inactive) in test [4]; > 100 µM (inactive) in [5]; > 100 µM (inactive) in [6]. Also, the GI50 in test [7], in test [8], in test [9], in test [10], in test [11] and in [17] was > 100 µM (inactive) throughout. The GI50 in test [12], in test [15] and in test [16] was > 100 µM (inactive) throughout.
For `CC12CCC[C@@](C)(C(=O)OC3OC(CO)C(O)C(O)C3O)[C@H]1CCC13CC4CC(OC4(CO)[C@H]1O)[C@@H]23` (some centres not stated), the GI50 was > 100 µM (inactive) in [2]; > 100 µM (inactive) in [3]; 14.5 µM (inactive) in test [4]; > 100 µM (inactive) in test [5]; > 100 µM (inactive) in [6]; > 100 µM (inactive) in test [8]. The GI50 in test [9], in test [10], in [11], in test [17], in test [12] and in test [13] was > 100 µM (inactive) each time. Also, the GI50 in test [14] and in test [16] was > 100 µM (inactive) throughout.
